Source: ChEMBL document CHEMBL1909046, “DrugMatrix in vitro pharmacology data”

Experiments:
[1] = target: C-C chemokine receptor type 2 (Homo sapiens, UniProt P41597); type: cell membranes, CHO-K1, Membrane; details: cho-k1; further: in other assays of this panel Not Active means under 50% inhibition at 10 µM
[2] = target: C-C chemokine receptor type 5 (Homo sapiens, UniProt P51681); type: cell membranes, HEK293, Membrane; details: hek293; further: in other assays of this panel Not Active means under 50% inhibition at 10 µM
[3] = target: Receptor tyrosine-protein kinase erbB-2 (Homo sapiens, UniProt P04626); type: cell-based; details: insect cells;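 further: inhibition of HER2 kinase enzyme activity, measured with Poly(Glu:Tyr) as the phosphorylation substrate; in other assays of this panel Not Active means under 50% inhibition at 10 µM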
Substance-K receptor = target: T1, Substance-K receptor (Homo sapiens, UniProt P21452); type: cell membranes, CHO, Membrane; further: in other assays of this panel Not Active means under 50% inhibition at 10 µM
T1 sequence (P21452 whole entry): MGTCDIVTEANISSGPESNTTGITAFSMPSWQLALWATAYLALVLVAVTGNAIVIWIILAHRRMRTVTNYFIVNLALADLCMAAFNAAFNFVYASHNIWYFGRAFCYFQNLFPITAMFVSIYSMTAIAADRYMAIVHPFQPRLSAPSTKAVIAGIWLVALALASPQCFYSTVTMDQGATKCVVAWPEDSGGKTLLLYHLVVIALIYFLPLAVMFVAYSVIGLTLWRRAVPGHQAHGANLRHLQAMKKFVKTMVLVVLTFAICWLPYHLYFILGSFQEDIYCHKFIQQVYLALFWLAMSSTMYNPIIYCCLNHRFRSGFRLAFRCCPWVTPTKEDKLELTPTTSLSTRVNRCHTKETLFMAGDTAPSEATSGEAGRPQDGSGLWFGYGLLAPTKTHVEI

Melanocortin receptor 5 = Melanocortin receptor 5 (Homo sapiens, UniProt P33032); type: cell membranes, HEK293, Membrane; details: hek293; further: in other assays of this panel Not Active means under 50% inhibition at 10 µM
[4] = DRUGMATRIX: Glutamate, Kainate radioligand binding (ligand: [3H] Kainic acid); type: cell membranes, Rattus norvegicus, Wistar, Brain, Membrane; details: Not Active = under 50% inhibition at 10 µM

Melanocortin receptor 5, sequence (P33032 whole entry): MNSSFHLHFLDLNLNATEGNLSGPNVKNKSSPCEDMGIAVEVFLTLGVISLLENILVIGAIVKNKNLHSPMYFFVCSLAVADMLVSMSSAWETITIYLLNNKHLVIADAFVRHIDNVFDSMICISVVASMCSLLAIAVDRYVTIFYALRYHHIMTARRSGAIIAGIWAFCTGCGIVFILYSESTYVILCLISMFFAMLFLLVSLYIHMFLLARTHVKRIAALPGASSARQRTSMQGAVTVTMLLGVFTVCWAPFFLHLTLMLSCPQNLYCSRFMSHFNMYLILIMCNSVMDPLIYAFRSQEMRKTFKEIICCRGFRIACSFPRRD
C-C chemokine receptor type 2, sequence (P41597 whole entry): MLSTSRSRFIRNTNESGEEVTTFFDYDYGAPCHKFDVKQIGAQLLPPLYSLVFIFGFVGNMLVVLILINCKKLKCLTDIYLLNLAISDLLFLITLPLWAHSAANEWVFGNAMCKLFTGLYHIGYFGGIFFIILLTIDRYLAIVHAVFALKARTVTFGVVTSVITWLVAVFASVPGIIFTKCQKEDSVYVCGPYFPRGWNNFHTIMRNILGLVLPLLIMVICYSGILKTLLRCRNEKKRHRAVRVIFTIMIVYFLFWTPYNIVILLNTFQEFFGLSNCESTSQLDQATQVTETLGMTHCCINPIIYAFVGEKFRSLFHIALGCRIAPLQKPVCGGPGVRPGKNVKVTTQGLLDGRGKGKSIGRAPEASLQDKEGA
C-C chemokine receptor type 5, sequence (P51681 whole entry): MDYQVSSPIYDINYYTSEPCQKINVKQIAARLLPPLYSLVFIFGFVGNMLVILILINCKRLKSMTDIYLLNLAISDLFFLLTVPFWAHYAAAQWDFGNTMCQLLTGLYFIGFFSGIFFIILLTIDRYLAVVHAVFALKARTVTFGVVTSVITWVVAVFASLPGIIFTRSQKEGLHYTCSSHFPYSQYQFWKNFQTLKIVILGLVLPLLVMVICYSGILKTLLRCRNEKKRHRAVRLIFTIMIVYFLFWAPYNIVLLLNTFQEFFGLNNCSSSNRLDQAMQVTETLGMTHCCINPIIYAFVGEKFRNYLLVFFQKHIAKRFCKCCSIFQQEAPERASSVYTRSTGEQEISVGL

Cc1cccc(C)c1NC(=O)C(C)N (stereo not given) [TOCAINIDE]
IC50 [1]: Not Active | IC50 [2]: Not Active | IC50 [3]: Not Active | IC50 (Substance-K receptor; cho): Not Active | IC50 (Melanocortin receptor 5): Not Active | IC50 [4]: Not Active | Ki [4]: Not Active

CCN(CC)N=O [N-NITROSODIETHYLAMINE]
IC50 [1]: Not Active | IC50 [2]: Not Active | IC50 [3]: Not Active | IC50 (Substance-K receptor; cho): Not Active | IC50 (Melanocortin receptor 5): Not Active | IC50 [4]: Not Active | Ki [4]: Not Active

CCC(C)(C)C(=O)O[C@H]1C[C@@H](C)C=C2C=C[C@H](C)[C@H](CC[C@@H]3C[C@@H](O)CC(=O)O3)[C@H]21 [SIMVASTATIN]
IC50 [1]: Not Active | IC50 [2]: Not Active | IC50 [3]: Not Active | IC50 (Substance-K receptor; cho): Not Active | IC50 (Melanocortin receptor 5): Not Active | IC50 [4]: Not Active | Ki [4]: Not Active

CN1C[C@H](CNC(=O)OCc2ccccc2)C[C@@H]2c3cccc4c3c(cn4C)C[C@H]21 [METERGOLINE]
IC50 [1]: Not Active | IC50 [2]: Not Active | IC50 [3]: Not Active | IC50 (Substance-K receptor; read-out: IC50): 4.07 µM | Ki (Substance-K receptor; read-out: Ki): 1360 nM | IC50 (Melanocortin receptor 5): Not Active | IC50 [4]: Not Active | Ki [4]: Not Active

CCN(CC)CCNC(=O)c1cc(Cl)c(N)cc1OC [METOCLOPRAMIDE]
IC50 [1]: Not Active | IC50 [2]: Not Active | IC50 [3]: Not Active | IC50 (Substance-K receptor; cho): Not Active | IC50 (Melanocortin receptor 5): Not Active | IC50 [4]: Not Active | Ki [4]: Not Active

Cc1ccc(Cl)c(Nc2ccccc2C(=O)O)c1Cl [MECLOFENAMIC ACID]
IC50 [1]: Not Active | IC50 [2]: Not Active | IC50 [3]: Not Active | IC50 (Substance-K receptor; cho): Not Active | IC50 (Melanocortin receptor 5): Not Active | IC50 [4]: Not Active | Ki [4]: Not Active

CO[C@@]12[C@H](COC(N)=O)C3=C(C(=O)C(C)=C(N)C3=O)N1C[C@@H]1N[C@@H]12 [MITOMYCIN]
IC50 [1]: Not Active | IC50 [2]: Not Active | IC50 [3]: Not Active | IC50 (Substance-K receptor; cho): Not Active | IC50 (Melanocortin receptor 5): Not Active | IC50 [4]: Not Active | Ki [4]: Not Active

Cc1[nH]c(=O)c(C#N)cc1-c1ccncc1 [MILRINONE]
IC50 [1]: Not Active | IC50 [2]: Not Active | IC50 [3]: Not Active | IC50 (Substance-K receptor; cho): Not Active | IC50 (Melanocortin receptor 5): Not Active | IC50 [4]: Not Active | Ki [4]: Not Active

O=[As][O-].[Na+] [SODIUM ARSENITE]
IC50 [1]: Not Active | IC50 [2]: Not Active | IC50 [3]: Not Active | IC50 (Substance-K receptor; cho): Not Active | IC50 (Melanocortin receptor 5): Not Active | IC50 [4]: Not Active | Ki [4]: Not Active

COC(=O)Nc1nc2ccc(C(=O)c3ccccc3)cc2[nH]1 [MEBENDAZOLE]
IC50 [1]: Not Active | IC50 [2]: Not Active | IC50 [3]: Not Active | IC50 (Substance-K receptor; cho): Not Active | IC50 (Melanocortin receptor 5): Not Active | IC50 [4]: Not Active | Ki [4]: Not Active

CCOC(=O)C1=C(C)NC(C)=C(C(=O)OCC)C1c1ccccc1/C=C/C(=O)OC(C)(C)C [LACIDIPINE]
IC50 [1]: Not Active | IC50 [2]: Not Active | IC50 [3]: Not Active | IC50 (Substance-K receptor; cho): Not Active | IC50 (Melanocortin receptor 5): Not Active | IC50 [4]: Not Active | Ki [4]: Not Active

O=C(OC[C@H]1O[C@@H](OC(=O)c2cc(O)c(O)c(OC(=O)c3cc(O)c(O)c(O)c3)c2)[C@H](OC(=O)c2cc(O)c(O)c(OC(=O)c3cc(O)c(O)c(O)c3)c2)[C@@H](OC(=O)c2cc(O)c(O)c(OC(=O)c3cc(O)c(O)c(O)c3)c2)[C@@H]1OC(=O)c1cc(O)c(O)c(OC(=O)c2cc(O)c(O)c(O)c2)c1)c1cc(O)c(O)c(OC(=O)c2cc(O)c(O)c(O)c2)c1 [TANNIC ACID]
IC50 [1]: Not Active | IC50 [2]: Not Active | IC50 [3]: Not Active | IC50 (Substance-K receptor; cho): Not Active | IC50 (Melanocortin receptor 5): Not Active | IC50 [4]: Not Active | Ki [4]: Not Active

CC#C[C@]1(O)CC[C@H]2[C@@H]3CCC4=CC(=O)CCC4=C3[C@@H](c3ccc(N(C)C)cc3)C[C@@]21C [MIFEPRISTONE]
IC50 [1]: Not Active | IC50 [2]: Not Active | IC50 [3]: Not Active | IC50 (Substance-K receptor; cho): Not Active | IC50 (Melanocortin receptor 5): Not Active | IC50 [4]: Not Active | Ki [4]: Not Active

CC(O)C(=O)O (stereo not given) [LACTIC ACID]
IC50 [1]: Not Active | IC50 [2]: Not Active | IC50 [3]: Not Active | IC50 (Substance-K receptor; cho): Not Active | IC50 (Melanocortin receptor 5): Not Active | IC50 [4]: Not Active | Ki [4]: Not Active

Cc1ccnc(NS(=O)(=O)c2ccc(N)cc2)n1 [SULFAMERAZINE]
IC50 [1]: Not Active | IC50 [2]: Not Active | IC50 [3]: Not Active | IC50 (Substance-K receptor; cho): Not Active | IC50 (Melanocortin receptor 5): Not Active | IC50 [4]: Not Active | Ki [4]: Not Active

CC(C)(C)NC[C@H](O)COc1cccc2c1CCCC2=O [LEVOBUNOLOL]
IC50 [1]: Not Active | IC50 [2]: Not Active | IC50 [3]: Not Active | IC50 (Substance-K receptor; cho): Not Active | IC50 (Melanocortin receptor 5): Not Active | IC50 [4]: Not Active | Ki [4]: Not Active

CCOc1cc(N)c(Cl)cc1C(=O)NCC1CN(Cc2ccc(F)cc2)CCO1 (stereo not given) [MOSAPRIDE]
IC50 [1]: Not Active | IC50 [2]: Not Active | IC50 [3]: Not Active | IC50 (Substance-K receptor; cho): Not Active | IC50 (Melanocortin receptor 5): Not Active | IC50 [4]: Not Active | Ki [4]: Not Active

CC(=O)O[C@]1(C(C)=O)CC[C@H]2[C@@H]3C[C@H](C)C4=CC(=O)CC[C@]4(C)[C@H]3CC[C@@]21C [MEDROXYPROGESTERONE ACETATE]
IC50 [1]: Not Active | IC50 [2]: Not Active | IC50 [3]: Not Active | IC50 (Substance-K receptor; cho): Not Active | IC50 (Melanocortin receptor 5): Not Active | IC50 [4]: Not Active | Ki [4]: Not Active

OC[C@@H](O)[C@@H](O)[C@H](O)[C@H](O)CO [MANNITOL]
IC50 [1]: Not Active | IC50 [2]: Not Active | IC50 [3]: Not Active | IC50 (Substance-K receptor; cho): Not Active | IC50 (Melanocortin receptor 5): Not Active | IC50 [4]: Not Active | Ki [4]: Not Active

CC(Cl)(Cl)Cl [TRICHLOROETHANE]
IC50 [1]: Not Active | IC50 [2]: Not Active | IC50 [3]: Not Active | IC50 (Substance-K receptor; cho): Not Active | IC50 (Melanocortin receptor 5): Not Active | IC50 [4]: Not Active | Ki [4]: Not Active

LEAD(IV) ACETATE
IC50 [1]: Not Active | Ki [1]: Not Active | IC50 [2]: Not Active | Ki [2]: Not Active | IC50 [3]: Not Active | Ki [3]: Not Active | IC50 (Substance-K receptor; cho): Not Active | Ki (Substance-K receptor; cho): Not Active | IC50 (Melanocortin receptor 5): Not Active | Ki (Melanocortin receptor 5): Not Active | IC50 [4]: Not Active | Ki [4]: Not Active

O=C(c1ccccc1)c1ccc2n1CCC2C(=O)O (stereo not given) [KETOROLAC]
IC50 [1]: Not Active | IC50 [2]: Not Active | IC50 [3]: Not Active | IC50 (Substance-K receptor; cho): Not Active | IC50 (Melanocortin receptor 5): Not Active | IC50 [4]: Not Active | Ki [4]: Not Active
